Experimental data as given in PMC6934700, “Structure-Guided Design of a Fluorescent Probe for the Visualization of FtsZ in Clinically Important Gram-Positive and Gram-Negative Bacterial Pathogens” (Scientific Reports, 2019).
Values after ≈ are worked out from the molar mass of the structure shown.

Assays:
S. aureus (SaFtsZ) = target: T1, S. aureus (SaFtsZ) (Staphylococcus aureus, UniProt P0A031); test: biochemical; type: binding; conditions: 0.1 µM compound, 10 µM SaFtsZ, 37 °C
T1 construct: 6xHis (C); made in house; host or cells: E. coli BLR (DE3), pET-22b(+)
T1 sequence (P0A031 1-390): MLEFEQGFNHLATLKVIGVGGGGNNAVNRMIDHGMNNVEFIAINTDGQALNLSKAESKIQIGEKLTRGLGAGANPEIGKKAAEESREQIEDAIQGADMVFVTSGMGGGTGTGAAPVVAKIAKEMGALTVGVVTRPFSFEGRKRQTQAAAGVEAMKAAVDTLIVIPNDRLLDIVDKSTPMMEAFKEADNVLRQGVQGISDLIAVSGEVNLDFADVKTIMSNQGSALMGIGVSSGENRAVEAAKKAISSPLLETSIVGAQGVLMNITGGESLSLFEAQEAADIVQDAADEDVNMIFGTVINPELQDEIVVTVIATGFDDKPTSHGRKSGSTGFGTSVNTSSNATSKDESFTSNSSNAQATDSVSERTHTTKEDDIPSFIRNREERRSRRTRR
Experimental: (§1) Fluorescence anisotropy experiments were performed using an AVIV model ATF105 spectrofluorometer at 15, 25, or 37 °C. In these experiments, bandwidths were set to 4 nm in both the excitation and emission directions, with the excitation and emission wavelengths being set at 488 nm and 510 nm, respectively. BOFP (0.1 µM) was titrated with increasing concentrations (ranging from 0 to 12 µM) of FtsZ in 120 µL of buffer containing 50 mM Tris-HCl (pH 7.6) and 50 mM KCl. After each protein addition, the samples were equilibrated for 3 minutes, whereupon the fluorescence anisotropy was measured.
(§2) In this equation, r0 is the anisotropy of the protein-free compound, r∞ is the anisotropy of the compound in the presence of an infinite concentration of FtsZ, [C]tot is the total concentration of the compound, and [P]tot is the total concentration of protein with each addition. These analyses yielded the equilibrium dissociation constant (Kd) for each binding reaction.
(§3) The binding free energy (ΔG) at temperature T was derived from the corresponding Kd value determined at T using the following relationship:2 ΔG=−RTln(1/Kd)
(§4) The binding enthalpy (ΔH) and entropy (ΔS) were derived from linear fits of the ln(1/Kd) vs. 1/T plots shown in Figs. 3f and 5e using the following relationship:3 ln(1/Kd)=−ΔH/R(1/T)+ΔS/R
The impact of guanosine nucleotide and magnesium on the binding of BOFP to SaFtsZ was assessed at 37 °C in the same buffer described above. In these studies, the anisotropy of 0.1 µM BOFP alone or in the presence of 10 µM SaFtsZ was measured, with the latter also being measured in the presence of 0.1 mM GMPCPP (a non-hydrolyzable GTP analog), 10 mM MgCl2, or both.
(§5) In comparative control experiments, the anisotropy of 0.1 µM BODIPY FL-COOH or BOFP alone or in the presence of SaFtsZ (10 µM), SpyFtsZ (10 µM), KpFtsZ (2 µM), or PaFtsZ (2 µM) was measured at 37 °C in the same buffer described above.

P. aeruginosa (PaFtsZ) = target: T2, P. aeruginosa (PaFtsZ) (Pseudomonas aeruginosa, UniProt P47204); test: Fluorescence anisotropy binding of BOFP to PaFtsZ; conditions: 0.1 µM compound, 2 µM PaFtsZ, 37 °C
T2 construct: 6xHis (C); made in house; host or cells: E. coli BLR (DE3), pET-22b(+)
T2 sequence (P47204 1-394): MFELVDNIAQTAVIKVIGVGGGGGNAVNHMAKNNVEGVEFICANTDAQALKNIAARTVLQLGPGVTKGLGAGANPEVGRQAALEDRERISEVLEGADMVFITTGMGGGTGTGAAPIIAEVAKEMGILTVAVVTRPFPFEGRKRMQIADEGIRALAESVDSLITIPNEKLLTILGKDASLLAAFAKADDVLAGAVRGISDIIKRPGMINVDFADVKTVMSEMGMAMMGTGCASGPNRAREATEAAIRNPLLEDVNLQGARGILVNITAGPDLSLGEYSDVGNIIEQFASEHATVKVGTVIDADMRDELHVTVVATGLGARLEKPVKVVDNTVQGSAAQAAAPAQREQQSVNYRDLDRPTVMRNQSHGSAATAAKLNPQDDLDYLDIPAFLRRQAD
Experimental: as §1, §2, §3, §4, §5

S. pyogenes (SpyFtsZ) = S. pyogenes (SpyFtsZ) (Streptococcus pyogenes, UniProt Q99YV7); test: Fluorescence anisotropy binding of BOFP to SpyFtsZ; conditions: 0.1 µM compound, 10 µM SpyFtsZ, 37 °C
Sequence of S. pyogenes (SpyFtsZ) (Q99YV7 entry or part of it): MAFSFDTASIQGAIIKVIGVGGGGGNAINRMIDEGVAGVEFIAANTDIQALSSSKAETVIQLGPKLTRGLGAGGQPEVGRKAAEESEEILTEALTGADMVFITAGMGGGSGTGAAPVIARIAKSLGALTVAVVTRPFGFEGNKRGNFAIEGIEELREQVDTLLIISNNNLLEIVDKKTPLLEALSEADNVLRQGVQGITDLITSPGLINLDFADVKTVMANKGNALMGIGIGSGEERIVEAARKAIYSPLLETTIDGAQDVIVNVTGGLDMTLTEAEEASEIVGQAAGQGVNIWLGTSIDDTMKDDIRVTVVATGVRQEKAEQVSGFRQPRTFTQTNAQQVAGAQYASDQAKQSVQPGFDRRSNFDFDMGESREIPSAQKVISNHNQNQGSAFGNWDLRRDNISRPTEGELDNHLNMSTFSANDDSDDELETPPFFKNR
Experimental: as §1, §2, §3, §4, §5

[1] = test system: FtsZ in K. pneumoniae ATCC 13883 cells; test: FtsZ visualization by fluorescence microscopy in live cells; type: cell-based, Klebsiella pneumoniae; conditions: 1 µg/mL for 5 minutes, co-treated with 3.5 mg/mL pentamidine isethionate
Experimental: (§6) All differential interference contrast (DIC) and fluorescence microscopy experiments were conducted using an Olympus BX50 microscope equipped with an X-cite Exacte 200 W mercury lamp, a 100× Olympus UPLSAPO oil immersion objective (1.40 aperture), as well as both Chroma ET-EGFP (FITC/Cy2) and ET mCherry, Texas Red filters. Images were captured using a QImaging Retiga R3 charge-coupled device (CCD) camera and the Ocular-Version 2.0 software package (QImaging).
For visualizing FtsZ in Gram-negative bacteria using BOFP, E. coli ATCC 25922, K. pneumoniae ATCC 13883, P. aeruginosa ATCC 27853, and A. baumannii ATCC 19606 were grown to log-phase in CAMH broth. For each Gram-negative bacterial strain, a total of 1 mL of cell culture was centrifuged at 15,000 × g for 1 minute and washed twice with 1 mL of Tris-buffered saline (TBS) composed of 50 mM Tris-HCl (pH 7.6) and 150 mM NaCl. After the final wash, the pelleted cells were resuspended in 500 µL of TBS containing 1 µg/mL of BOFP and pentamidine isethionate (at 0.875 mg/mL for E. coli and 3.5 mg/mL for the other three strains). The resuspended cells were then incubated in the dark for 5 minutes at room temperature, centrifuged at 15,000 × g for 1 minute, washed twice with 1 mL of TBS, and subsequently resuspended in 200 µL of TBS. This final cell suspension was then prepared for microscopy as described for the Gram-positive bacterial strains. Comparative control experiments with 1 µg/mL BODIPY FL-COOH were conducted in K. pneumoniae ATCC 13883 cells as described above for BOFP.

[2] = target: T3, FtsZ in S. aureus NRS705 cells (Staphylococcus aureus, UniProt P0A031); type: cell-based; conditions: 1 µg/mL for 5 minutes
T3 construct: endogenous in cells; host or cells: S. aureus NRS705 (USA100 MRSA)
Experimental: as §6
For visualizing FtsZ in Gram-positive bacteria using BOFP, the bacterial cells were grown to log-phase in media suitable for each individual pathogen. Specifically, S. aureus NRS705 (MRSA) was grown in tryptic soy broth (TSB), E. faecalis ATCC 29212 and E. faecium ATCC 19434 were grown in lactobacilli MRS broth, S. agalactiae ATCC 12386 and S. pneumoniae ATCC 49619 were grown in TH broth, and S. pyogenes ATCC 19615 was grown in CAMH broth supplemented with 3% (v/v) LHB. For each Gram-positive bacterial strain, a total of 1 mL of cell culture was centrifuged at 15,000 × g for 1 minute and washed 2–3 times with 1 mL of PBS. After the final wash, the pelleted cells were resuspended in 500 µL of PBS containing 1 µg/mL of BOFP and incubated in the dark for 5 minutes at room temperature. The cells were then centrifuged at 15,000 × g for 1 minute, washed twice with 1 mL of PBS, and subsequently resuspended in 200 µL of PBS. […]

K. pneumoniae (KpFtsZ) = K. pneumoniae (KpFtsZ) (Klebsiella pneumoniae, UniProt A0A0H3GRR0); test: Fluorescence anisotropy binding of BOFP to KpFtsZ; conditions: 0.1 µM compound, 2 µM KpFtsZ, 37 °C
Sequence of K. pneumoniae (KpFtsZ) (A0A0H3GRR0 entry or part of it): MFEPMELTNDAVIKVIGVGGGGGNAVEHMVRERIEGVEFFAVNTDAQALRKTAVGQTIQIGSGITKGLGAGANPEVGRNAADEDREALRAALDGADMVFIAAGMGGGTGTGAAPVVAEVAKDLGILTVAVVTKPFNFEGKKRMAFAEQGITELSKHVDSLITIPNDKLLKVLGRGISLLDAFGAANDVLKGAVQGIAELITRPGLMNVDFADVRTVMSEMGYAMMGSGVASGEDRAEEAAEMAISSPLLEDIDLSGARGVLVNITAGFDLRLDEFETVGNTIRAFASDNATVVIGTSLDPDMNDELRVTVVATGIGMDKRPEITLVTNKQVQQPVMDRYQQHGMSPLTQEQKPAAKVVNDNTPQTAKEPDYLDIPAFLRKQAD
Experimental: as §1, §2, §3, §4, §5

S. aureus NRS705 (MRSA) = test: MIC assay by broth microdilution; type: cell-based, Staphylococcus aureus; conditions: for 4× MIC: S. aureus NRS705, concentration equal to four times the MIC; for MIC: Staphylococcus aureus, MRSA NRS705, TH broth, ≥90% growth inhibition after 18-24 hours
Experimental: MIC assays of 1, 3, and BOFP were conducted by standard broth microdilution in TH media. Briefly, log-phase S. aureus NRS705 (MRSA) cells were added to 96-well microtiter plates (at 5 × 10^5 CFU/mL) containing 2-fold serial dilutions of each test compound in 0.1 mL of TH broth, with each compound concentration being present in duplicate. The MIC is defined as the lowest compound concentration at which growth is ≥90% inhibited after 18-24 hours of aerobic growth.

E. coli N43 [3] = test: Impact of FtsZ inhibitor treatment on cell morphology and FtsZ localization (DIC/fluorescence microscopy, BOFP labeling); type: cell-based, Escherichia coli; conditions: treated at 4x MIC for 3 hours
Experimental: as §6
(§7) To visualize the impact of treatment with the FtsZ inhibitor 1 using BOFP, S. aureus NRS705 (MRSA), E. coli N43, and K. pneumoniae ATCC 10031 were grown to log-phase in CAMH broth and diluted to an OD600 of 0.1. […] Following this treatment, 1–5 mL of each culture was centrifuged at 15,000 × g for 1 minute and washed twice with 1 mL of PBS (for S. aureus) or TBS (for E. coli and K. pneumoniae). The resulting S. aureus cell pellets were further processed and labeled with BOFP as described above for the Gram-positive bacterial strains and the resulting E. coli and K. pneumoniae cell pellets were further processed and labeled with BOFP as described above for the Gram-negative bacterial strains. The impact of treating S. aureus NRS705 cells with the FtsZ inhibitors PC190723 and TXA707 at 4× MIC (2 µg/mL for PC190723 and 4 µg/mL for TXA707) was also examined using BOFP as described above.

K. pneumoniae ATCC 10031 [4] = test: as above; type: cell-based, Klebsiella pneumoniae; conditions: treated at 4x MIC for 3 hours
Experimental: as §6, §7

MRSA LAC FtsZ-mCherry = test: MIC (stated as 4× MIC used for treatment); type: cell-based, Staphylococcus aureus; conditions: concentration equal to four times the MIC
E. coli N43 [5] = test: MIC (stated as 4× MIC used for treatment); type: cell-based, Escherichia coli; conditions: concentration equal to four times the MIC
K. pneumoniae ATCC 10031 [6] = test: MIC (stated as 4× MIC used for treatment); type: cell-based, Klebsiella pneumoniae; conditions: concentration equal to four times the MIC
S. aureus NRS705 = test: Impact of FtsZ inhibitor treatment on cell morphology and FtsZ localization (DIC/fluorescence microscopy, BOFP labeling); type: cell-based, Staphylococcus aureus; conditions: treated at 4x MIC for 3 hours
Experimental: as §6, §7

CC1=CC(C)=[N+]2C1=Cc1ccc(CCC(=O)O)n1[B-]2(F)F [BODIPY FL-COOH, 3-(5,5-difluoro-7,9-dimethyl-5H-5λ^4,6λ^4-dipyrrolo[1,2-c:2′,1′-f][1,3,2]diazaborinin-3-yl)propanoic acid, reference compound]
Binding interaction (fluorescence anisotropy change on adding FtsZ) (S. aureus (SaFtsZ)): No such anisotropy change was observed | Binding interaction (fluorescence anisotropy change on adding FtsZ) (P. aeruginosa (PaFtsZ)): no binding interactions with BODIPY FL-COOH were detectable | Binding interaction (fluorescence anisotropy change on adding FtsZ) (S. pyogenes (SpyFtsZ)): no such binding interactions were observable | Fluorescence staining / FtsZ labeling in live cells [1]: no such FtsZ staining was detectable | Fluorescence staining / FtsZ labeling in live cells [2]: no fluorescence staining of the S. aureus cells was detectable | Binding interaction (fluorescence anisotropy change on adding FtsZ) (K. pneumoniae (KpFtsZ)): no binding interactions with BODIPY FL-COOH were detectable

NC(=O)c1c(F)ccc(OCc2nc3cc(Cl)cnc3s2)c1F [PC190723]
4× MIC (S. aureus NRS705 (MRSA)): 2 µg/mL

NC(=O)c1c(F)ccc(OCc2nc(-c3ccc(C(F)(F)F)cc3)c(Br)o2)c1F [compound 1]
Change in cell morphology (E. coli N43 [3]): filamentation | FtsZ localization visualized with BOFP (E. coli N43 [3]; then 1 µg/mL BOFP with 0.875 mg/mL pentamidine isethionate for 5 minutes): clear mislocalization of FtsZ and an absence of Z-rings | Change in cell morphology (K. pneumoniae ATCC 10031 [4]): filamentation | FtsZ localization visualized with BOFP (K. pneumoniae ATCC 10031 [4]; then 1 µg/mL BOFP with 3.5 mg/mL pentamidine isethionate for 5 minutes): clear mislocalization of FtsZ and an absence of Z-rings | 4× MIC (MRSA LAC FtsZ-mCherry): 0.25 µg/mL | 4× MIC (E. coli N43 [5]): 4 µg/mL | 4× MIC (S. aureus NRS705 (MRSA)): 1 µg/mL | MIC (S. aureus NRS705 (MRSA)): 0.25 µg/mL (≈ 0.524 µM) | 4× MIC (K. pneumoniae ATCC 10031 [6]): 4 µg/mL | Change in cell morphology (S. aureus NRS705): cell enlargement | FtsZ localization visualized with BOFP (S. aureus NRS705; then 1 µg/mL BOFP for 5 minutes): clear mislocalization of FtsZ and an absence of Z-rings

NC(=O)c1c(F)ccc(OC(CO)c2nc(-c3ccc(C(F)(F)F)cc3)c(Br)o2)c1F (centres unmarked) [compound 3]
MIC (S. aureus NRS705 (MRSA)): 0.5 µg/mL (≈ 0.986 µM)

NC(=O)c1c(F)ccc(OCc2nc3cc(C(F)(F)F)cnc3s2)c1F [TXA707]
4× MIC (S. aureus NRS705 (MRSA)): 4 µg/mL
